Measurements: patent publication US8957074B2 (Novartis AG, priority 2010, dated 2015)
Like-named read-outs stand apart in the source and are kept apart here.

Experiments:
[1] = system: phosphorylation of pRb at the Ser780 site in JeKo-1 mantle cell lymphoma cells; assay: CDK4 cellular assay: ELISA of pRb phosphorylation at Ser780 in JeKo-1 cells; type: cell-based; settings: Homo sapiens
CDK1/cyclin B = CDK1/cyclin B (Homo sapiens (Human), UniProt P06493); assay: CDK1/cyclin B enzymatic activity assay (IMAP-FP); type: biochemical
From the text: CDK1/Cyclin B Enzymatic Activity Assay
A 384-well microtiter IMAP-FP™ (Molecular Devices Trade Mark Technology) endpoint assay was used for CDK1/cyclin B kinase activity measurements. The same assay was used for IC50 determination of small molecule inhibitors.

CDK4/cyclin D1 = CDK4/cyclin D1 (Homo sapiens (Human), UniProt P11802); assay: CDK4/cyclin D1 enzymatic activity assay (TR-FRET, phosphorylation of pRb at Ser780); type: biochemical; settings: 0.3 nM CDK4/cyclin D1, 150 nM biotin-pRb (773-924), 3 μM ATP, 60 min at 22° C.; read-out: Biochemical CDK4 enzyme IC50
Outline: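 Phosphorylation at pRb Ser780, detected by TR-FRET, gave IC50s and kinetics. Enzyme: baculovirus/Sf21-expressed human CDK4/cyclin D1. ATP at 3 μM initiated the reaction; EDTA (pH 8.0) stopped it after 60 min at 22° C.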

[2] = JeKo-1 cells, p-pRb % inhibition adjusted with total pRb levels, read-out: Normalized cellular ppRb inhibition IC50
[3] = JeKo-1 cells, p-pRb Ser780 ELISA, non-normalized, read-out: Cellular ppRb inhibition IC50
[4] = […] CDK1/cyclin B, 100 nM Tamra Histone-H1 peptide, 20 μM ATP, 120 min at room temperature, read-out: Biochemical CDK1 enzyme IC50
[5] = JeKo-1, JeKo-1 cells, p-pRb % inhibition adjusted with total pRb levels, read-out: Normalized cellular ppRb inhibition IC50
[6] = JeKo-1, JeKo-1 cells, p-pRb Ser780 ELISA, non-normalized, read-out: Cellular ppRb inhibition IC50

Chain of CDK1/cyclin B (P06493 whole entry, species assumed): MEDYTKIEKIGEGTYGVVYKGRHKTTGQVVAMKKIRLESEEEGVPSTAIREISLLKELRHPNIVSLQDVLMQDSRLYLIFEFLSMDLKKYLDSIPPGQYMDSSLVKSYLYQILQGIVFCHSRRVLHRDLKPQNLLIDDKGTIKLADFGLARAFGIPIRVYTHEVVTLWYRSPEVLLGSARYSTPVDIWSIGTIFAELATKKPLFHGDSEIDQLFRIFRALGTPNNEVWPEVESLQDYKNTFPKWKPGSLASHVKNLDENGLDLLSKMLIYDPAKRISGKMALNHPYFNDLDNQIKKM
Chain of CDK1/cyclin B (P14635 whole entry partner, species assumed): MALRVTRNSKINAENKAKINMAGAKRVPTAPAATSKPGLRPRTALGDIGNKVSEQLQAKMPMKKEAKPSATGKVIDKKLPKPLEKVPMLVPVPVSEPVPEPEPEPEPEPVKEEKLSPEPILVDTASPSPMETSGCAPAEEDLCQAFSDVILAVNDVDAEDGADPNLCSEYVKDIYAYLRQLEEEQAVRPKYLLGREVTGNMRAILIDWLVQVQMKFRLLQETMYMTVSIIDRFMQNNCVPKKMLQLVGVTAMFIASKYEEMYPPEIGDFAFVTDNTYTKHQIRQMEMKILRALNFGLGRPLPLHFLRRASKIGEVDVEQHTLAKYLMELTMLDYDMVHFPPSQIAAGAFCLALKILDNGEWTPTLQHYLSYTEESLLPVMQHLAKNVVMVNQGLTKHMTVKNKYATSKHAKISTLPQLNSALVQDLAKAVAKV
Chain of CDK4/cyclin D1 (P11802 whole entry): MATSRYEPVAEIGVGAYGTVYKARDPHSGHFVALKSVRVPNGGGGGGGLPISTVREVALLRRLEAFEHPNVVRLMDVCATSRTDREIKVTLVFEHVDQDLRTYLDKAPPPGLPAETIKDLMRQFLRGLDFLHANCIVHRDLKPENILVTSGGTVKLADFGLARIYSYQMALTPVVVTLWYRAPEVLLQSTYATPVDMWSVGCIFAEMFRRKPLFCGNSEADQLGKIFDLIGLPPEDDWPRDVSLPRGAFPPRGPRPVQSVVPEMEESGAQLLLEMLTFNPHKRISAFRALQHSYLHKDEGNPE
Chain of CDK4/cyclin D1 (P24385 whole entry partner): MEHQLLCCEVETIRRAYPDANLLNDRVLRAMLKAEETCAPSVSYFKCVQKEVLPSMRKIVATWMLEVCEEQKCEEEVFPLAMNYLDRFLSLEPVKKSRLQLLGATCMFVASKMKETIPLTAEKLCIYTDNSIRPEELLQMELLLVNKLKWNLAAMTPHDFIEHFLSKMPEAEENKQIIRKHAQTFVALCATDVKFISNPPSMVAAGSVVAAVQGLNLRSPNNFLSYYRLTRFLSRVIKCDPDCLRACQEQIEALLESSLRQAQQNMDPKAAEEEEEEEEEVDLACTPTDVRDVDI

SMILES	IC50 [1, 2] [µM]	IC50 [1, 3] [µM]	IC50 (CDK1/cyclin B; [4]) [µM]	IC50 (CDK4/cyclin D1) [µM]	IC50 [1, 5] [µM]	IC50 [1, 6] [µM]	IC50 (CDK1/cyclin B; 0.25 nM CDK1/cyclin B, 100 nM Tamra Histone-H1 peptide, 20 μM ATP, 120 min at room temperature, read-out: Biochemical CDK1 enzyme IC50) [µM]	IC50 (CDK1/cyclin B) [µM]
CN(C)C(=O)c1cc2cnc(Nc3ccc(C(=O)N4CC5CNCC(C4)O5)cn3)nc2n1C1CCCC1 [Example 47, 7-Cyclopentyl-2-[5-(9-oxa-3,7-diaza-bicyclo[3.3.1]nonane-3-carbonyl)-pyridin-2-ylamino]-7H-pyrrolo[2,3-d]pyrimidine-6-carboxylic acid dimethylamide]	0.352	0.315	> 15	0.03	–	–	–	–
CN(C)C(=O)c1cc2cnc(Nc3ccc(C(=O)N4CCN5CCC4CC5)cn3)nc2n1C1CCCC1 [Example 48, 7-Cyclopentyl-2-[5-(1,4-diaza-bicyclo[3.2.2]nonane-4-carbonyl)-pyridin-2-ylamino]-7H-pyrrolo[2,3-d]pyrimidine-6-carboxylic acid dimethylamide]	0.229	0.152	> 15	0.024	–	–	–	–
CN(C)C(=O)c1cc2cnc(Nc3ccc(C(=O)N4C[C@H]5C[C@@H]4CN5)cn3)nc2n1C1CCCC1 [Example 49, 7-Cyclopentyl-2-[5-((R,R)-2,5-diaza-bicyclo[2.2.1]heptane-2-carbonyl)-pyridin-2-ylamino]-7H-pyrrolo[2,3-d]pyrimidine-6-carboxylic acid dimethylamide]	–	–	> 15	0.045	0.052 to 0.431	0.044 to 0.231	–	–
Cc1nc(Nc2ncc3cc(C(=O)N(C)C)n(C4CCCC4)c3n2)ccc1C(=O)N1CC2CCC(C1)N2 [Example 50, 7-Cyclopentyl-2-[5-(3,8-diaza-bicyclo[3.2.1]octane-3-carbonyl)-6-methyl-pyridin-2-ylamino]-7H-pyrrolo[2,3-d]pyrimidine-6-carboxylic acid dimethylamide]	–	–	> 15	0.021	0.09	0.041	–	–
Cc1cc(Nc2ncc3cc(C(=O)N(C)C)n(C4CCCC4)c3n2)ncc1C(=O)N1CC2CCC(C1)N2 [Example 51, 7-Cyclopentyl-2-[5-(3,8-diaza-bicyclo[3.2.1]octane-3-carbonyl)-4-methyl-pyridin-2-ylamino]-7H-pyrrolo[2,3-d]pyrimidine-6-carboxylic acid dimethylamide]	0.06	0.028	–	0.023	–	–	> 15	–
CN(C)C(=O)c1cc2cnc(Nc3ccc(C(=O)N4CC5CCC(C4)N5)cn3)nc2n1-c1ccc(C(C)(C)C)cc1 [Example 53, 7-(4-tert-Butyl-phenyl)-2-[5-(3,8-diaza-bicyclo[3.2.1]octane-3-carbonyl)-pyridin-2-ylamino]-7H-pyrrolo[2,3-d]pyrimidine-6-carboxylic acid dimethylamide]	–	–	> 15	0.003	0.007 to 0.027	0.007 to 0.014	–	–
CN(C)C(=O)c1cc2cnc(Nc3ccc(C(=O)N4CC5CCC(C4)N5)cn3)nc2n1-c1cccc(C(C)(C)C)c1 [Example 54, 7-(3-tert-Butyl-phenyl)-2-[5-(3,8-diaza-bicyclo[3.2.1]octane-3-carbonyl)-pyridin-2-ylamino]-7H-pyrrolo[2,3-d]pyrimidine-6-carboxylic acid dimethylamide]	–	–	1.99	0.003	0.008 to 0.047	0.006 to 0.033	–	–
CN(C)C(=O)c1cc2cnc(Nc3ccc(C(=O)N4CC5CCC(C4)N5)cn3)nc2n1C1CCN(C(C)(C)C)CC1 [Example 57, 7-(1-tert-Butyl-piperidin-4-yl)-2-[5-(3,8-diaza-bicyclo[3.2.1]octane-3-carbonyl)-pyridin-2-ylamino]-7H-pyrrolo[2,3-d]pyrimidine-6-carboxylic acid dimethylamide]	> 10	> 10	> 15	1.57	–	–	–	–
CN(C)C(=O)c1cc2cnc(Nc3ccc(C(=O)N4CC5CCC(C4)N5)cn3)nc2n1C(C)(C)C [Example 58, 7-tert-Butyl-2-[5-(3,8-diaza-bicyclo[3.2.1]octane-3-carbonyl)-pyridin-2-ylamino]-7H-pyrrolo[2,3-d]pyrimidine-6-carboxylic acid dimethylamide]	0.288 to 0.338	0.105 to 0.188	> 15	0.074	–	–	–	–
CSCC[C@@H](N)C(=O)N1C2CCC1CN(C(=O)c1ccc(Nc3ncc4cc(C(=O)N(C)C)n(C5CCCC5)c4n3)nc1)C2 [Example 59, 2-{5-[8-((R)-2-Amino-4-methylsulfanyl-butyryl)-3,8-diaza-bicyclo[3.2.1]octane-3-carbonyl]-pyridin-2-ylamino}-7-cyclopentyl-7H-pyrrolo[2,3-d]pyrimidine-6-carboxylic acid dimethylamide]	> 10	2.5	> 15	0.008	–	–	–	–
CN(C)C(=O)c1cc2cnc(Nc3ccc(C(=O)N4CC5CCC(C4)N5C(=O)CN)cn3)nc2n1C1CCCC1 [Example 60, 2-{5-[8-(2-Amino-acetyl)-3,8-diaza-bicyclo[3.2.1]octane-3-carbonyl]-pyridin-2-ylamino}-7-cyclopentyl-7H-pyrrolo[2,3-d]pyrimidine-6-carboxylic acid dimethylamide]	0.047	0.021	> 15	0.019	–	–	–	–
CN(C)C(=O)c1cc2cnc(Nc3ccc(C(=O)N4CC5CCC(C4)N5C(=O)C4CCCN4)cn3)nc2n1C1CCCC1 (stereo not shown) [Example 61, 7-Cyclopentyl-2-{5-[8-(pyrrolidine-2-carbonyl)-3,8-diaza-bicyclo[3.2.1]octane-3-carbonyl]-pyridin-2-ylamino}-7H-pyrrolo[2,3-d]pyrimidine-6-carboxylic acid dimethylamide]	0.053	0.021	> 15	0.02	–	–	–	–
CC(C)[C@@H](N)C(=O)N1C2CCC1CN(C(=O)c1ccc(Nc3ncc4cc(C(=O)N(C)C)n(C5CCCC5)c4n3)nc1)C2 [Example 62, 2-{5-[8-((R)-2-Amino-3-methyl-butyryl)-3,8-diaza-bicyclo[3.2.1]octane-3-carbonyl]-pyridin-2-ylamino}-7-cyclopentyl-7H-pyrrolo[2,3-d]pyrimidine-6-carboxylic acid dimethylamide]	0.723	0.291	39.9	0.01	–	–	–	–
[2H]C([2H])([2H])N1C2CCC1CN(C(=O)c1ccc(Nc3ncc4cc(C(=O)N(C)C)n(C5CCCC5)c4n3)nc1)C2 [Example 63, 7-Cyclopentyl-2-[5-(8-methyl-d3-3,8-diaza-bicyclo[3.2.1]octane-3-carbonyl)-pyridin-2-ylamino]-7H-pyrrolo[2,3-d]pyrimidine-6-carboxylic acid dimethylamide]	–	–	–	0.011 to 0.024	0.04 to 0.242	0.034 to 0.078	–	> 15
CCOC(=O)N1C2CCC1CN(C(=O)c1ccc(Nc3ncc4cc(C(=O)N(C)C)n(C5CCCC5)c4n3)nc1)C2 [Example 64, 3-[6-(7-Cyclopentyl-6-dimethylcarbamoyl-7H-pyrrolo[2,3-d]pyrimidin-2-ylamino)-pyridine-3-carbonyl]-3,8-diaza-bicyclo[3.2.1]octane-8-carboxylic acid ethyl ester]	0.771 to 2.2	0.323 to 0.466	> 15	0.072 to 0.179	–	–	–	–
CN(C)C(=O)c1cc2cnc(Nc3ccc(C(=O)N4CC5CCC(C4)N5)cn3)nc2n1C1CCCOC1 (stereo not shown) [Example 65, 2-(5-(3,8-diazabicyclo[3.2.1]octane-3-carbonyl)pyridin-2-ylamino)-N,N-dimethyl-7-(tetrahydro-2H-pyran-3-yl)-7H-pyrrolo[2,3-d]pyrimidine-6-carboxamide]	0.132 to 0.458	0.126 to 0.211	> 15	0.076	–	–	–	–
CN(C)C(=O)c1cc2cnc(Nc3ccc(C(=O)N4CC5CCC(C4)N5)cn3)nc2n1C1CCCCC1 [Example 66, 7-Cyclohexyl-2-[5-(3,8-diaza-bicyclo[3.2.1]octane-3-carbonyl)-pyridin-2-ylamino]-7H-pyrrolo[2,3-d]pyrimidine-6-carboxylic acid dimethylamide]	–	–	> 15	0.004 to 0.007	0.041	0.038	–	–
CN(C)C(=O)c1cc2cnc(Nc3ccc(C(=O)N4CC5CC4CN5)cn3)nc2n1C1CCCCC1 (stereo not shown) [Example 67, 7-Cyclohexyl-2-[5-(2,5-diaza-bicyclo[2.2.1]heptane-2-carbonyl)-pyridin-2-ylamino]-7H-pyrrolo[2,3-d]pyrimidine-6-carboxylic acid dimethylamide]	0.054	0.051	10.4	0.003	–	–	–	–
CN(C)C(=O)c1cc2cnc(Nc3ccc(C(=O)N4CC5COCC(C4)N5)cn3)nc2n1C1CCCC1 [Example 70, 7-Cyclopentyl-2-[5-(3-oxa-7,9-diaza-bicyclo[3.3.1]nonane-7-carbonyl)-pyridin-2-ylamino]-7H-pyrrolo[2,3-d]pyrimidine-6-carboxylic acid dimethylamide]	0.18	0.117	> 15	0.039	–	–	–	–
